From patent publication US11833125B2, “Pharmaceutical composition for controlled release of treprostinil” (Pharmosa Biopharm Inc., priority 2018, dated 2023)

Assays:
[1] = In vivo pharmacokinetics study, intra-tracheal administration, plasma treprostinil by LC-MS/MS; set-up: species or system Sprague-Dawley rats; conditions: rat, FIGS. 1A and 1B
Protocol: In this in vivo PK study, Sprague-Dawley rats (purchased from BioLASCO Taiwan Co., Ltd.) were anaesthetized with isoflurane, and positioned securely on its back to an arched platform in a dorsal position at a 45° to 50° plane using a ribbon hooked around upper incisors. A microspray aerosol tip (Microsprayer, PennCentury, Philadelphia, USA) was inserted to the tracheal bifurcation of each rat, and a test sample (i.e., compositions in Table 2 or free treprostinil solution) was administered intra-tracheally to each rat at a given dose using a high-pressure syringe that is attached to the microspray aerosol device. […] The blood sample was then centrifuged at approximately 2500×g for 15 min and at 4±2° C. within 1 hour of collection, so as to separate the plasma from the blood cells. Approximately 0.1 mL of the obtained plasma sample from each rat was added into a new storage tube and stored in a freezer with a temperature maintained at −70±2° C. […] The obtained supernatant (150 μL) was mixed with an equal volume of H2O and analyzed by liquid chromatography-tandem mass spectrometry (LC-MS/MS) to determine the treprostinil concentration in the plasma sample of the rat. […]

Sprague Dawley rats = test: Safety evaluation of inhaled composition: cage-side observation of upper airway irritation; format: in vivo; conditions: nebulized, nose-only inhalation, 6 μg/kg/day for 10 days; frequency of clinical signs in 10 inhalations; n = 3
Protocol: In this study, 8 male Sprague Dawley rats (purchased from BioLASCO Taiwan Co., Ltd.) were divided into 3 groups: control group (n=2), comparative group (n=3) and experimental group (n=3). The experimental group rats and the comparative group rats were placed in restraining tubes and given nebulized treprostinil liposomal composition LB11500 from Example 2 and free treprostinil solution, respectively, at a dosage of 6 μg/kg/day for 10 days, via a 20-port nose-only Buxco inhalation exposure system (DSI, USA). An air flow carried aerosol generated by mesh vibrating nebulizer was provided to the system tower where the rats are encased in, at a rate of 10 L/min. The control group rats received no exposure to the drug.
During the study, cage-side clinical observation was performed on each rat by a single observer to record incidences of upper airway irritation due to the inhaled nebulized treprostinil liposomal composition or free treprostinil solution. Manifestations of upper airway irritation include tension, sneezing, erythematous pinnae, tremor, hunched posture, piloerection, tachypnea and labored breathing, hyperpnea and epistaxis.

CCCCC[C@H](O)CC[C@@H]1[C@H]2Cc3cccc(OCC(=O)O)c3C[C@H]2C[C@H]1O [free treprostinil, treprostinil]
time at which plasma treprostinil concentration peaked [1]: ≤ 5 min | Incidences of upper airway irritation (Sprague Dawley rats): 17
